According to patent US20110300167A1, “CXCR5 RECEPTOR COMPOUNDS” (priority 2008, published 2011):

Experiments:
Format in all cases: cell-based
CXCR5 [1] = molecular target: T1, CXCR5 (Homo sapiens, UniProt P32302); assay: HTRF cAMP assay, inhibition of forskolin-stimulated cAMP production in HEK293 cells expressing hCXCR5; design: expressed in transfected cells; host or cells: HEK293; conditions: HEK293 cells expressing hCXCR5, 2 doses of compound (3 uM, 0.3 uM)
T1 sequence (P32302 1-372): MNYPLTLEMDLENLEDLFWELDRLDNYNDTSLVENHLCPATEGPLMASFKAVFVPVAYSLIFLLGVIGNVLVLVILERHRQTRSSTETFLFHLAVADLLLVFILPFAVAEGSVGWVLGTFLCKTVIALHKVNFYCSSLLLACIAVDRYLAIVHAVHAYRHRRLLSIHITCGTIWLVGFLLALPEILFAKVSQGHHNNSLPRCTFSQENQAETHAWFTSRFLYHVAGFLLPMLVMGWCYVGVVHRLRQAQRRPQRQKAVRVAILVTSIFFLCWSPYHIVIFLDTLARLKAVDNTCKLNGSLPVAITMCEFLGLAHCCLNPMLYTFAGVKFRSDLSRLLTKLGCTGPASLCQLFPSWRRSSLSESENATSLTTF
Excerpt: HTRF (homogeneous time resolved fluorescence) is a technology developed by Cisbio Bioassays based on TR-FRET (time-resolved fluorescence resonance energy transfer). Cisbio Bioassays has developed a wide selection of HTRF-based assays compatible with whole cells, thereby enabling functional assays run under more physiological conditions. cAMP kits are based on a competitive immunoassay using cryptate-labeled anti-cAMP antibody and d2-labeled cAMP. This assay allows the measurement of increase in intracellular cAMP upon Gs-coupled receptor activation as well as decrease in forskolin stimulated increase in cAMP upon Gi-coupled receptor activation. The IP-One assays are competitive immunoassays that use cryptate-labeled anti-IP1 monoclonal antibody and d2-labeled IP1. IP1 is a relatively stable downstream metabolite of IP3, and accumulates in cells following Gq receptor activation.
A cAMP assay was performed in the presence of Compound 14 to assess the activation of CXCR5 by the production of cAMP. HEK293 cells expressing hCXCR5 were incubated with CXCL13, and the inhibition of forskolin-stimulated cAMP production was quantified in cells in the absence and presence of Compound 14. […] This response is indicative of a reduction of decrease in forskolin-stimulated cAMP due to enhanced CXCR5 (Gi) activation.

CXCR5 [2] = molecular target: T1, CXCR5; assay: Chemotaxis assay (Transwell, CXCL13 dose-response, 300.19 cells expressing CXCR5); conditions: 300.19 cells incubated with compound, compared to the vehicle control
Excerpt: Chemotaxis assays were utilized to determine the effect of compound on the directed migration of cells in response to chemokine. 300.19 cells that express CXCR5 were placed in the upper chamber of a Transwell chemotaxis plate (Corning) and allowed to migrate through a polycarbonate membrane to a lower chamber containing the appropriate receptor-specific ligand. To test for antagonist or potentiating activity, cells were mixed with the desired concentration of compound prior to addition to the upper chamber. Conversely, agonist activity was determined by adding compound in the bottom chamber only without endogenous chemokine. The effect of compound is quantified by several parameters, including the extent of maximum response, the shift of agonist dose-response curves, and the area under the curve. […]
To initiate cell migration, the assembled transwell plate was placed in a 37° C., […] incubator for a specified time interval, typically between 30 and 120 minutes. […] To quantify migrated cells, plates were thawed at 37° C. in a humidified chamber, and then a sample volume was removed from each well and mixed with an equal volume of CyQuant (Invitrogen) working solution in opaque plates. The fluorescence intensity of each well represents the DNA content and is directly proportional to cell number. […]

CXCR5 [3] = molecular target: T1, CXCR5; assay: β-arrestin assay (DiscoverX eXpress β-arrestin cells expressing CXCR5)
Excerpt: The β-arrestin assays developed by DiscoverX employed herein detect binding of a ligand to the GPCR by directly measuring β-arrestin recruitment to the GPCR independent of G-protein coupling. In this system, β-arrestin is fused to an N-terminal deletion mutant of β-gal (termed the enzyme acceptor of EA) and the GPCR of interest is fused to a smaller (42 amino acids), weakly complementing fragment. In cells that stably express these fusion proteins, ligand stimulation results in the interaction of β-arrestin and the tagged GPCR, forcing the complementation of the two β-gal fragments and resulting in the formation of a functional enzyme that converts substrate to detectable signal. In practice, eXpress β-arrestin cells expressing the receptor of interest are incubated with either compound alone (agonist mode), or compound plus native ligand (allosteric mode). A chemiluminescent substrate is then added to determine the extent of enzyme activity, and by inference, arrestin recruitment to GPCR.
The β-arrestin assays for CXCR5 Compound 14 were run in both agonist and allosteric modes. In agonist mode, the CXCR5-expressing eXpress β-arrestin cells were incubated with a dose curve of CXCR5 Compound 14 in the absence of CXCL13. […] In allosteric mode, Compound 14 is co-incubated with CXCL13, and the CXCR5 response of the eXpress cells is quantified.

Pal-HAVHAYRHRRLLS-amide [Compound 14]
shift of cAMP responses to CXCL13 (inhibition of forskolin-stimulated cAMP production) (CXCR5 [1]): shifted leftward in a dose-dependent manner | shift of the bell-shaped ligand dose-response curve (chemotaxis) (CXCR5 [2]; CXCL13 dose-response): leftward shift | AUC of the bell-shaped ligand dose-response curve (chemotaxis) (CXCR5 [2]): increase | β-arrestin recruitment response curve, allosteric mode (CXCR5 [3]; compound co-incubated with CXCL13): left-shifted and higher maximal response curve | β-arrestin recruitment response, agonist mode (CXCR5 [3]; dose curve of compound in the absence of CXCL13): lack of response
